The series concerns LAT1 mRNA. Description: LAT1 gene expression (RT-qPCR) after LAT1 gene silencing in human colon cancer HTC-116 cells. To be noted: treatment 6 h. It counts as cell-based. The procedure:
SK-HEP-1, T24, HT-1080 and HCT-116 cell lines were maintained in a humidified atmosphere of 5% CO2 at 37° C. SK-HEP-1 cells were grown in RPMI-1640 (Sigma, St. Louis, Mo.) supplemented with 20% fetal bovine serum (FBS) (Gibco, UK), 100 U/mL penicillin G, 0.25 μg/mL amphotericin B, 100 μg/mL streptomycin (Gibco, UK), 25 mM sodium bicarbonate (Merck, Germany) and 25 mM N-2-hydroxyethylpiperazine-N′-2-ethanosulfonic acid (HEPES) (Sigma, St. Louis, Mo.). T24 and HT-1080 cells were grown, respectively, in Dulbecco's Modified Eagle's Medium (DMEM)—high glucose (Sigma, St. Louis, Mo.) and DMEM—low glucose (Sigma, St. Louis, Mo.), supplemented with 10% FBS (Gibco, UK), 100 U/mL penicillin G, 0.25 μg/mL amphotericin B, 100 μg/mL streptomycin (Gibco, UK), 25 mM sodium bicarbonate (Merck, Germany) and 25 mM HEPES (Sigma, St. Louis, Mo.). HCT-116 cells were grown in McCoy's 5A (Sigma, St. Louis, Mo.) supplemented with 10% FBS (Gibco, UK), 100 U/mL penicillin G, 0.25 μg/mL amphotericin B, 100 μg/mL streptomycin (Gibco, UK), 25 mM sodium bicarbonate (Merck, Germany) and 25 mM HEPES (Sigma, St. Louis, Mo.). For all cell lines the medium was changed every 2 days, and cells reached confluence 3-4 days after initial seeding. For subculturing, cells were dissociated with 0.25% trypsin-ethylenediaminetetraacetic acid (EDTA) (Sigma, St. Louis, Mo.), split 1:15 or 1:20 and subcultured in a 21-cm^2 growth area (Sarstedt, Germany).
Total RNA was isolated and purified using the SV Total RNA Isolation System (Promega, USA) according to manufacturer's instructions. RNA quality and concentration were verified in the NanoDrop ND1000 Spectrophotometer (Thermo Scientific, USA), and RNA integrity and genomic DNA contamination were evaluated by agarose gel electrophoresis. Total RNA (1 μg) was converted into cDNA using the Maxima Scientific First Strand cDNA Synthesis Kit for RT-qPCR (Thermo Scientific, USA), according to instructions. The following protocol was used: 1st step, 10 min at 25° C.; 2nd step, 15 min at 50° C.; 3rd step, 5 min at 85° C. cDNA was used for qPCR analysis using Maxima SYBR Green qPCR Master Mix (Thermo Scientific, USA) in the StepOnePlus instrument (Applied Biosystems, USA). QuantiTect Primer Assay for LAT1 and ASCT2 and for the endogenous control gene GAPDH (Quiagen, Germany) were used. The qPCR reaction was performed in 96-well PCR plates (Sarstedt, Germany) as follows: one cycle of 10 min at 95° C., followed by 40 PCR cycles at 95° C. 15 s and 60° C. 60 s. […] No template controls were always evaluated for each target gene. Quantification cycle (Cq) values were generated automatically by the StepOnePlus 2.3 Software and the ratio of the target gene was expressed in comparison to the endogenous control gene GAPDH.
Cells were plated in 24-well (Sarstedt, Germany) or 6-well plates (Sarstedt, Germany) or 96-well plates with black walls clear bottom (BD Biosciences, USA) and incubated 24 h under normal growth conditions. siRNAs against LAT1 and transfection agent were diluted at desired concentrations and mixed according to transfection agent manufacturer's instructions. The mixture was incubated 20 min at RT for siRNA-complex formation, after which it was added to the cells and incubated at 37° C., 5% CO2. After the incubation period, serum and antibiotic was restored and cells were further incubated at normal conditions for the desired time points until evaluation of LAT1 activity or LAT1 expression (immunoblotting and RT-qPCR).
On the technique in general: Real-time PCR tracks product formation cycle by cycle.

The results in this text go back to patent US10590422B2, “Anticancer therapeutic intervention” (PHYZAT BIOPHARMACEUTICALS, LDA., priority 2017, dated 2020).

Turning to “58/387/388 (sense CUUCGCCACCUACCUGCUCAATT; antisense UUGAGCAGGUAGGUGGCGAAGTT; siRNA; sugars by position and backbone not given here; further chemistry not fully specified)”, the “LAT1 mRNA relative abundance” value is recorded as “decreased” (5, 25 and 45 nM, concentration dependent, 0.5% Lipofectamine 2000, Lipofectamine RNAiMAX or Injectin, at 72 h, FIGS. 10A and 10B); “decreased” (5 or 25 nM siRNA, at 24 h or 48 h, 0.5% Lipofectamine 2000, FIGS. 9A and 9C); “significantly decreased” (72 h, 0.17% Lipofectamine 2000 or 0.1% Injectin, FIG. 19A).
